Test results reported in patent US20220362279A1, “USE OF OLIGONUCLEOTIDES FOR THE TREATMENT AND PREVENTION OF PAIN” (CONSEJO NACIONAL DE INVESTIGACIONES CIENTÍFICAS Y TÉCNICAS, priority 2018, published 2022).
Strand notation (5' to 3'): a small letter for the sugar, then the base; units joined by * are phosphorothioate-linked, units joined directly phosphodiester-linked; [ ] holds rarer units or linkages, { } end groups; capitals alone tell only the bases. d = 2'-deoxy (DNA)

How the values were obtained:
[1] = tested on: rats with SNI; assay: Cold allodynia in rats with spared nerve injury (SNI); format: in vivo, rat; settings: single dose of 6 mg/kg seven days after SNI, s.c.
Description: In twenty-six rats anesthetized with Isoflurane (5% induction, 2.5% maintenance, 0.8 L/min O2 flow rate; Piramal Healthcare, UK), the right sciatic nerve and its three distal branches were exposed by blunt dissection, and the tibial and common peronneal branches completely sectioned and ligated to prevent regeneration. The third branch, the sural nerve, was left intact. The animals received one single injection of ketoprofen for post-surgical pain control and were left to recover from anesthesia in a warm and quiet environment before relocating them in their corresponding cages.
Rats were administered subcutaneously using the LT protocol (FIG. 4A) and a single dose of 6 mg/kg of IMT504. This was followed by pain-like behavior testing for up to six weeks after SNI.
Naïve (uninjured and untreated; n=16), CFA injured untreated (n=10), and vehicle-treated CFA (n=9) or SNI rats (n=10) were used as controls. Eight naïve rats remained untreated, four were vehicle-treated, and four received a daily dose of 20 mg/kg IMT504 for five consecutive days. Untreated CFA rats received an intradermal hind paw injection of CFA and no further treatment. […]
For cold allodynia assessment, the reaction to the application of a drop of acetone onto the plantar surface of the hind paw was used. Both frequency of withdrawal and cold score (pain-like behavior intensity) were measured.

[2] = tested on: rats with post-incisional pain; assay: Mechanical allodynia in rats with post-incisional pain (plantar incision); format: in vivo, rat; settings: 6 mg/kg s.c. 48 h and 24 h before incision
Description: In twenty-four rats anesthetized with Isoflurane (5% induction, 2.5% maintenance, 0.8 L/min O2 flow rate; Scott-Cassara, Argentina), the right hind paw plantar skin was cleaned and disinfected. This was followed by a 1-cm longitudinal incision distal to heel and extending towards the toes, as previously described (Xu J, et al., 2011, 24(5): 508-514). The incision involved both plantar skin and fascia. This was followed by identification and longitudinal incision of plantar […] muscle, leaving its insertions intact. After achieving homeostasica, skin was sutured using a 5-0 nylon suture, protected with an antibacterial cream and the animal was returned to its retention cage, under observation, until full recovery from anesthesia.
Rats were subcutaneously administered 6 mg/kg of IMT504, 48 and 24 h before implementing the post-incisional pain model. This was followed by pain-like behavior testing for up to 21 days after injury.
For mechanical allodynia assessment, a set of von Frey filaments (Stoelting, Ill., USA) and the modified up-down method of Dixon were used, to establish the 50% withdrawal threshold. A withdrawal threshold of 0.21 oz or less was considered an allodynic response.

For “IMT504: synthetic phosphorothioate oligodeoxynucleotide with sequence 5′-TCATCATTTTGTCATTTTGTCATT-3′ (SEQ ID No 1) (DNA dT*dC*dA*dT*dC*dA*dT*dT*dT*dT*dG*dT*dC*dA*dT*dT*dT*dT*dG*dT*dC*dA*dT*dT)”, the cold score [1] was “reduced to basal levels ten days after injury and onwards”, the “cold withdrawal frequency reduced to basal levels” value [1] was “three weeks after injury” and the “day after injury from which basal withdrawal thresholds are shown” value [2] was 3 days. For the same substance, the “mechanical withdrawal thresholds and responses to cold stimuli in contralateral hind paws” value ([2]; data not shown) was “remained normal” and the “reduction of mechanical withdrawal thresholds at 6 h and 1 day after injury” value ([2]; vs vehicle) was “lower reduction of withdrawal thresholds”.
